Test results reported in ChEMBL document CHEMBL5523738, “Lipid Trolling to Optimize A3 Adenosine Receptor-Positive Allosteric Modulators (PAMs)” (J Med Chem, 2024).
Calls of active or inactive are those of the source. The calls are words filed in the database; no cut-off is given here.

Assays:
[1] = target: Histamine H2 receptor (Homo sapiens) (UniProt P25021); assay: Binding affinity to histamine H2 receptor (unknown origin)
[2] = target: T1, Adenosine receptor A3 (Homo sapiens) (UniProt P0DMS8); assay: Positive allosteric modulation of human A3 adenosine receptor transfected in HEK293 cell membranes assessed as slow down of [125I]I-AB-MECA dissociation rate at 10 uM preincubated with radioligand for 3 hrs followed by NECA and compound addition and measured after 60 mins by gamma counter method; settings: Membrane, filed as positive allosteric modulator
T1 sequence (whole entry): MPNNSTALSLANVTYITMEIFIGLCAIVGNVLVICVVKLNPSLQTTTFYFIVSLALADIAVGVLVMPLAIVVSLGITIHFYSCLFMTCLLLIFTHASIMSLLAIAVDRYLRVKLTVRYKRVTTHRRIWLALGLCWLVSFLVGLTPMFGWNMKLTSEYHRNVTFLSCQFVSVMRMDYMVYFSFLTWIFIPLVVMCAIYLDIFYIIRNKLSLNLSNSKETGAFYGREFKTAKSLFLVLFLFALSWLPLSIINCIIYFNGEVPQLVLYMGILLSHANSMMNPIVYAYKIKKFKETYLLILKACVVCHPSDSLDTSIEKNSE

[3] = target: T1, Adenosine receptor A3 (Homo sapiens); assay: Positive allosteric modulation of human A3 adenosine receptor transfected in HEK293 cell membranes assessed as potentiation of 5-(2-chloro-6-((3-iodobenzyl)amino)-9H-purin-9-yl)-3,4-dihydroxy-N-methyltetrahydrofuran-2-carboxamide induced [35S]GTP-gammaS binding by measuring maximal efficacy of agonist at 0.01 uM pretreated for 1 hr followed by agonist addition and measured after 2 hrs by liquid scintillation counting method (reference value: 100 +/- 3%); settings: Membrane, filed as positive allosteric modulator, time 3.0 hrs
[4] = target: T2, Adenosine receptor A3 (Mus musculus) (UniProt Q61618); assay: Positive allosteric modulation of full length mouse A3 adenosine receptor transfected in HEK293 cell membranes assessed as reduction in [125I]I-AB-MECA dissociation rate at 1 to 10 uM preincubated with radioligand for 3 hrs followed by NECA and compound addition and measured upto 180 mins by gamma counter method; settings: Membrane, filed as positive allosteric modulator, dose 1-10 µM
T2 sequence (whole entry): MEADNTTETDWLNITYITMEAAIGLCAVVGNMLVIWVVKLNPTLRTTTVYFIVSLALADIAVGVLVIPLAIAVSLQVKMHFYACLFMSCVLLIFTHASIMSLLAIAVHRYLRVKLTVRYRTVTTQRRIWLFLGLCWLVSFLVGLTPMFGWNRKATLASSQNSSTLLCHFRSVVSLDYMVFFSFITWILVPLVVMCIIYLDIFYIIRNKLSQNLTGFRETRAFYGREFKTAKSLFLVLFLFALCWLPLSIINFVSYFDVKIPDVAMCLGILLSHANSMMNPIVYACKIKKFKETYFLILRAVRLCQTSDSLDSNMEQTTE

Homo sapiens = organism: Homo sapiens; assay: Binding affinity to BZP receptor (unknown origin)
[5] = target: 5-hydroxytryptamine receptor 1E (Homo sapiens) (UniProt P28566); assay: Binding affinity to 5-HT1E (unknown origin)
[6] = target: Beta-3 adrenergic receptor (Homo sapiens) (UniProt P13945); assay: Binding affinity to beta3 adrenergic receptor (unknown origin)
[7] = target: T1, Adenosine receptor A3 (Homo sapiens); assay: Positive allosteric modulation of human A3 adenosine receptor transfected in HEK293 cell membranes assessed as potentiation of 5-(2-chloro-6-((3-iodobenzyl)amino)-9H-purin-9-yl)-3,4-dihydroxy-N-methyltetrahydrofuran-2-carboxamide induced [35S]GTP-gammaS binding by measuring maximal efficacy of agonist at 0.001 uM pretreated for 1 hr followed by agonist addition and measured after 2 hrs by liquid scintillation counting method (reference value: 100 +/- 3%); settings: Membrane, filed as positive allosteric modulator, time 3.0 hrs
[8] = target: T1, Adenosine receptor A3 (Homo sapiens); assay: Positive allosteric modulation of human A3 adenosine receptor transfected in HEK293 cell membranes assessed as potentiation of MRS5698 induced ERK activation at 3 uM; settings: Membrane
[9] = target: T1, Adenosine receptor A3 (Homo sapiens); assay: Positive allosteric modulation of human A3 adenosine receptor transfected in HEK293 cell membranes assessed as potentiation of MRS5698 induced inhibition of cAMP formation by measuring maximal efficacy of agonist at 3 uM (reference value: 100%); format: functional; settings: Membrane, filed as positive allosteric modulator
[10] = target: T1, Adenosine receptor A3 (Homo sapiens); assay: Positive allosteric modulation of human A3 adenosine receptor transfected in HEK293 cell membranes assessed as potentiation of 5-(2-chloro-6-((3-iodobenzyl)amino)-9H-purin-9-yl)-3,4-dihydroxy-N-methyltetrahydrofuran-2-carboxamide induced [35S]GTP-gammaS binding by measuring fold increase in agonist …; settings: Membrane, filed as positive allosteric modulator, dose 1.0 µM, time 3.0 hrs
[11] = target: Alpha-1D adrenergic receptor (Homo sapiens) (UniProt P25100); assay: Binding affinity to alpha1D adrenergic receptor (unknown origin)
Sequence of Alpha-1D adrenergic receptor (Homo sapiens) (P25100 whole entry): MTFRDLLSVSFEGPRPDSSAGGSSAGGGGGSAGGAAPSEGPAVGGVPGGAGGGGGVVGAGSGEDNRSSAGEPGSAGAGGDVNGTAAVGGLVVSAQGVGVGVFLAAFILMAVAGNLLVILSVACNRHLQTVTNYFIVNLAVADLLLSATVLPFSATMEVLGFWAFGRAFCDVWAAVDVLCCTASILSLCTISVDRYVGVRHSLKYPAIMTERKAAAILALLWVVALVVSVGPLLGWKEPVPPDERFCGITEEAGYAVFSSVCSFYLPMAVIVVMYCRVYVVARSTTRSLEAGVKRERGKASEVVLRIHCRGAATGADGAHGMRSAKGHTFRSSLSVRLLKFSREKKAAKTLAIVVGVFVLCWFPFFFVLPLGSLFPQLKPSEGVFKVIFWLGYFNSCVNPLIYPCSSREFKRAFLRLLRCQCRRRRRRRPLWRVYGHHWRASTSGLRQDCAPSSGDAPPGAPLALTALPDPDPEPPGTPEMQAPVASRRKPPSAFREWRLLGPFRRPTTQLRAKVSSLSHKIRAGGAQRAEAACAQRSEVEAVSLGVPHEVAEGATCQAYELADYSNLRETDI

[12] = target: Kappa-type opioid receptor (Homo sapiens) (UniProt P41145); assay: Binding affinity to KOR (unknown origin)
Sequence of Kappa-type opioid receptor (Homo sapiens) (P41145 whole entry): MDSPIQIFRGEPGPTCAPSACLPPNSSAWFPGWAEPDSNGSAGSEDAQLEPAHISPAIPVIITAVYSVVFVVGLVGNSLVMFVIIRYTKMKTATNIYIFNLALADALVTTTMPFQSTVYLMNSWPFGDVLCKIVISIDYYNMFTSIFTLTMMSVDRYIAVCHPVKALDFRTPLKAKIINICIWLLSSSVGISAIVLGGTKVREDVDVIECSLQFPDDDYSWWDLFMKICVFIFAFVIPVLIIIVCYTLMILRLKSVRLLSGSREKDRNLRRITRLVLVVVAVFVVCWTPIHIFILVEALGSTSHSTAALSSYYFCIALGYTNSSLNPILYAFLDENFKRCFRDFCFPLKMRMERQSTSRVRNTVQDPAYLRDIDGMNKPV

[13] = target: T1, Adenosine receptor A3 (Homo sapiens); assay: Positive allosteric modulation of human A3 adenosine receptor transfected in HEK293 cell membranes assessed as potentiation of MRS5698 induced inhibition of cAMP formation by measuring fold increase in agonist potency at 3 uM relative to control; format: functional; settings: Membrane, filed as positive allosteric modulator
[14] = target: Adenosine receptor A1 (Homo sapiens) (UniProt P30542); assay: Positive allosteric modulation of human A1 adenosine receptor transfected in HEK293 cells assessed as potentiation of […] induced inhibition of cAMP formation at 3 uM; format: functional, cell-based
Sequence of Adenosine receptor A1 (Homo sapiens) (P30542 whole entry): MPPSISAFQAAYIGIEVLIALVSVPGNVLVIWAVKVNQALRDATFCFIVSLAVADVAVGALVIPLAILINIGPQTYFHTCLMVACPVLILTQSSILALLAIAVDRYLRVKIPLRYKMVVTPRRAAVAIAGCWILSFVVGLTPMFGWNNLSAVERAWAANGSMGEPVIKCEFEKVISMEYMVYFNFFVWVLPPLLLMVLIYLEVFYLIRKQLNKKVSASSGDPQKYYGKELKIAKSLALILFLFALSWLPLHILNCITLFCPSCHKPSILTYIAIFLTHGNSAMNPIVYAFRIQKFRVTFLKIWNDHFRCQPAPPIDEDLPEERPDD

[15] = target: Muscarinic acetylcholine receptor M2 (Homo sapiens) (UniProt P08172); assay: Binding affinity to M2 receptor (unknown origin)
Sequence of Muscarinic acetylcholine receptor M2 (Homo sapiens) (P08172 whole entry): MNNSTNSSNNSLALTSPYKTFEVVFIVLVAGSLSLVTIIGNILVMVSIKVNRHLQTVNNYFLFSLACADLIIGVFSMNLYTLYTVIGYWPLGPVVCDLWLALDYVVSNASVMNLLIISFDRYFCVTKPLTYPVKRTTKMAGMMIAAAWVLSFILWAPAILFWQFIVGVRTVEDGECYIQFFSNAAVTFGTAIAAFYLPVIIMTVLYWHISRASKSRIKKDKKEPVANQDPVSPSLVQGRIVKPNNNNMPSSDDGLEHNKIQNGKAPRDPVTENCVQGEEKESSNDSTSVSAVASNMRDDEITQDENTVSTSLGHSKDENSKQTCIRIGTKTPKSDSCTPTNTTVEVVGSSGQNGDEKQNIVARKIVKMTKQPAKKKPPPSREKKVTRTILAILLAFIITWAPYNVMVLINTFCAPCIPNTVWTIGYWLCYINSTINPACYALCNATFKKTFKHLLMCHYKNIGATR

[16] = target: 5-hydroxytryptamine receptor 3A (Homo sapiens) (UniProt P46098); assay: Binding affinity to 5-HT3 (unknown origin)
Sequence of 5-hydroxytryptamine receptor 3A (Homo sapiens) (P46098 whole entry): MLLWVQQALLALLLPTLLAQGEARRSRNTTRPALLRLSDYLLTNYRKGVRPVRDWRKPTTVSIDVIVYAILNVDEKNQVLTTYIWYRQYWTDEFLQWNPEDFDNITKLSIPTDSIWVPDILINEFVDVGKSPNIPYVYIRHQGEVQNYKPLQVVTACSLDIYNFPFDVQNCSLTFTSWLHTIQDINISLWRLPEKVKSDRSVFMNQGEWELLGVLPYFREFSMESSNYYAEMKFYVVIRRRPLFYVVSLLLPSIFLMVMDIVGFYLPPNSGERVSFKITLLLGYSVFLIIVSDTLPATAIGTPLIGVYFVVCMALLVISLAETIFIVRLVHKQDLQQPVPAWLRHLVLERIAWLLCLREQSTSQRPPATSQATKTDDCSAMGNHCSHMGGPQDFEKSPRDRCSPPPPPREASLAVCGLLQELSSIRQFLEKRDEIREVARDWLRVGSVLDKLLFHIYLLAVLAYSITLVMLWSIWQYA

[17] = target: Muscarinic acetylcholine receptor M4 (Homo sapiens) (UniProt P08173); assay: Binding affinity to M4 receptor (unknown origin)
Sequence of Muscarinic acetylcholine receptor M4 (Homo sapiens) (P08173 whole entry): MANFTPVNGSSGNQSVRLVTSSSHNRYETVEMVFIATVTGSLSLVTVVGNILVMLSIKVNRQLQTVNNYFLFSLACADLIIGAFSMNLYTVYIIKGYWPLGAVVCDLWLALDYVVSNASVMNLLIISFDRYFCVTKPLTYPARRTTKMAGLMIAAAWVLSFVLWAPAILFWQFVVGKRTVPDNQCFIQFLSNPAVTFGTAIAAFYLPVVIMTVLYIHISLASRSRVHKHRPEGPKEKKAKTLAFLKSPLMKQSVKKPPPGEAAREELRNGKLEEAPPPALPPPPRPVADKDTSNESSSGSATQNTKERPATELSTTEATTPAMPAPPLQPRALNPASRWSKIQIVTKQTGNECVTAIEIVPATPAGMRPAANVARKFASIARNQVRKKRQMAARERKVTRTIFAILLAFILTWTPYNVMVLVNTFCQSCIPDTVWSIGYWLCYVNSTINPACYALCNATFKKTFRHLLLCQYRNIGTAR

[18] = target: Alpha-1A adrenergic receptor (Homo sapiens) (UniProt P35348); assay: Binding affinity to alpha1A adrenergic receptor (unknown origin)
Sequence of Alpha-1A adrenergic receptor (Homo sapiens) (P35348 whole entry): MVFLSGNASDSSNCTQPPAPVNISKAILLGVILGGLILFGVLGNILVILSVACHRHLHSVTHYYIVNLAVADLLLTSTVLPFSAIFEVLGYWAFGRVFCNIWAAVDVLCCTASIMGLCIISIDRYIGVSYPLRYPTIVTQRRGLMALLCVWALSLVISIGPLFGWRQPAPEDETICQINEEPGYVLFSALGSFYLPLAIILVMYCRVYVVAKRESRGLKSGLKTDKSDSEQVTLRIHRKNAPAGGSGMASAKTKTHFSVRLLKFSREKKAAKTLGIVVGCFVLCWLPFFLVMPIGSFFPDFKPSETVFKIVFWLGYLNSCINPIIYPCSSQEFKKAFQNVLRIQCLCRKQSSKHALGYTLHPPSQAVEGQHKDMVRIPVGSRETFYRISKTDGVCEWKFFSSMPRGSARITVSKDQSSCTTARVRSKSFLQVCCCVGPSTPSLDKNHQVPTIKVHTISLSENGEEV

[19] = target: T2, Adenosine receptor A3 (Mus musculus); assay: Orthosteric antagonist activity at full length mouse A3 adenosine receptor transfected in HEK293 cell membranes assessed as inhibition of [125I]I-AB-MECA binding at equilibrium at 10 uM by gamma counter method; settings: Membrane, filed as antagonist
[20] = target: Delta-type opioid receptor (Homo sapiens) (UniProt P41143); assay: Binding affinity to DOR (unknown origin)
Sequence of Delta-type opioid receptor (Homo sapiens) (P41143 whole entry): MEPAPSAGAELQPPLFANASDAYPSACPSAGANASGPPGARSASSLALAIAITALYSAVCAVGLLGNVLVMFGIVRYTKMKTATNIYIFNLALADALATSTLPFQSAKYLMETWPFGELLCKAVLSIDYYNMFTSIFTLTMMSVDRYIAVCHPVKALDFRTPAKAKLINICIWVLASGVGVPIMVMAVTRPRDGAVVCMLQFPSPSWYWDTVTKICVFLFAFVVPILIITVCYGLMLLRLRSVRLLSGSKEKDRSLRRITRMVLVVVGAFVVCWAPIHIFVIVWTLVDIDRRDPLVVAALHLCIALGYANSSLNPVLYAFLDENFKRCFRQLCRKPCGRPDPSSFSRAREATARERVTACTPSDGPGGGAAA

[21] = target: T1, Adenosine receptor A3 (Homo sapiens); assay: Positive allosteric modulation of human A3 adenosine receptor transfected in HEK293 cell membranes assessed as potentiation of NECA induced ERK activation at 3 uM; settings: Membrane
[22] = target: D(1A) dopamine receptor (Homo sapiens) (UniProt P21728); assay: Binding affinity to D1 receptor (unknown origin)
[23] = target: T2, Adenosine receptor A3 (Mus musculus); assay: Positive allosteric modulation of full length mouse A3 adenosine receptor transfected in HEK293 cell membranes assessed as reduction in [125I]I-AB-MECA dissociation rate at 0.1 uM preincubated with radioligand for 3 hrs followed by NECA and compound addition and measured upto 180 mins by gamma counter method; settings: Membrane
[24] = target: D(2) dopamine receptor (Homo sapiens) (UniProt P14416); assay: Binding affinity to D2 receptor (unknown origin)
Sequence of D(2) dopamine receptor (Homo sapiens) (P14416 whole entry): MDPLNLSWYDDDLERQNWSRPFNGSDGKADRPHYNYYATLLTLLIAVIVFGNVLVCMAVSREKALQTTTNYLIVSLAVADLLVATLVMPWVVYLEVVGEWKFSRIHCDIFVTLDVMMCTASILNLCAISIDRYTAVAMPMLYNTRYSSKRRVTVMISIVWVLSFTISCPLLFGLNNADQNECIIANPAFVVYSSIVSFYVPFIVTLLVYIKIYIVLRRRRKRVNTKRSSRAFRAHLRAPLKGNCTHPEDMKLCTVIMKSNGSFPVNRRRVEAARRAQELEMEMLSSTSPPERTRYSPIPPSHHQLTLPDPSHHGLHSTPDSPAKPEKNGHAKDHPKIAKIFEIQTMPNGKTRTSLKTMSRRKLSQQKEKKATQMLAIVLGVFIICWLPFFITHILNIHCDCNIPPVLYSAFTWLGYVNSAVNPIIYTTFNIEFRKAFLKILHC

[25] = target: 5-hydroxytryptamine receptor 5A (Homo sapiens) (UniProt P47898); assay: Binding affinity to 5-HT5A (unknown origin)
[26] = target: GABA-A receptor; anion channel (Homo sapiens) (UniProt P14867+P47870+P18507+P28472+P48169+Q99928+Q9UN88+P34903+O00591+O14764+Q8N1C3+P18505+P78334+P47869+P31644+Q16445); assay: Binding affinity to GABA-A receptor (unknown origin); format: protein-complex assay
[27] = target: Beta-2 adrenergic receptor (Homo sapiens) (UniProt P07550); assay: Binding affinity to beta2 adrenergic receptor (unknown origin)
Sequence of Beta-2 adrenergic receptor (Homo sapiens) (P07550 whole entry, looked up): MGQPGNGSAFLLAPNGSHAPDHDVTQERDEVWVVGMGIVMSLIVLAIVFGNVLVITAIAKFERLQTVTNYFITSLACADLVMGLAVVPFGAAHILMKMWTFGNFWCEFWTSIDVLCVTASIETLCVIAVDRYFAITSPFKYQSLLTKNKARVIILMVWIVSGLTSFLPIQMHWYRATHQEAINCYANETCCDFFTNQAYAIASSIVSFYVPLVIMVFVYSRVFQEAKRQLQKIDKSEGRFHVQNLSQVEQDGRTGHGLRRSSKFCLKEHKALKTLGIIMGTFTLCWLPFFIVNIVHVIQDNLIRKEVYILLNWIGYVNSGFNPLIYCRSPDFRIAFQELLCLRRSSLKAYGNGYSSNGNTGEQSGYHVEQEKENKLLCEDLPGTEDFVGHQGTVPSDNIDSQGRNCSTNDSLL

[28] = target: Muscarinic acetylcholine receptor M1 (Homo sapiens) (UniProt P11229); assay: Binding affinity to M1 receptor (unknown origin)
Sequence of Muscarinic acetylcholine receptor M1 (Homo sapiens) (P11229 whole entry): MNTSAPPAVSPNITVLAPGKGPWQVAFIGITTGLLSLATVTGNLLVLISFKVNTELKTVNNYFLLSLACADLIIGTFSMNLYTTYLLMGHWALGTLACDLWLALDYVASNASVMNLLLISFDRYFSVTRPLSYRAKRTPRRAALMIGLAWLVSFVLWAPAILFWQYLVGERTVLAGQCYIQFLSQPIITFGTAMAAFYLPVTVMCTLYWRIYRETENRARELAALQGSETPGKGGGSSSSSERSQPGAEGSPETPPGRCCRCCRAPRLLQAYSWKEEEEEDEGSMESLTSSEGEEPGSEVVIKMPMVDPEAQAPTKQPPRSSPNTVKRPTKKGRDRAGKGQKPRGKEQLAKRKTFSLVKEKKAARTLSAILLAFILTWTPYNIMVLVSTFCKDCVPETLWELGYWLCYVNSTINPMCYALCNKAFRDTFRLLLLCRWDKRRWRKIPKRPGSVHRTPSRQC

[29] = target: Mu-type opioid receptor (Homo sapiens) (UniProt P35372); assay: Binding affinity to MOR (unknown origin)

In the case of CCCC(CCC)c1nc2c(Nc3ccc(C#CCCCCCCCCN)cc3)nc3ccccc3c2[nH]1, the Activity [1] is reported as “inactive”, the Activity [2] is reported as “Active” and the Emax [3] is reported as 157%. For the same compound, the Activity [4] was “Active”, the Activity (Homo sapiens) was “inactive” and the Activity [5] was “inactive”. For the same compound, the Activity [6] was “inactive”, the Emax [7] was 112% and the Activity [8] was “inactive”. For the same compound, the Emax [9] was 117%, the fold change (FC) [10] was 4 and the Activity [11] was “inactive”. The Activity [12] was “inactive”, the fold change (FC) [13] was 9 and the Activity [14] was “inactive”. For the same compound, the Activity [15] was “inactive”, the Activity [16] was “inactive” and the Activity [17] was “inactive”. The Activity [18] was “inactive”, the Activity [19] was “Active” and the Activity [20] was “inactive”. For the same compound, the Activity [21] was “inactive”, the Activity [22] was “inactive” and the Activity [23] was “inactive”. The Activity [24] was “inactive”, the Activity [25] was “inactive” and the Activity [26] was “inactive”. For the same compound, the Activity [27] was “inactive”, the Activity [28] was “inactive” and the Activity [29] was “inactive”.
